# Test results published in patent publication US7691901B2, “Carotenoid analogs or derivatives for the inhibition and amelioration of inflammation” (Cardax Pharmaceuticals Inc., priority 2004, dated 2010).
# Legend:
# [1] = format: physicochemical
# Procedure: Determination of aqueous solubility/dispersibility. 30.13 mg of 3 was added to 1 mL of USP-purified water. The sample was rotated for 2 hours, then centrifuged for 5 minutes. […] A 125-μL aliquot of the solution was then diluted to 25 mL. The sample was analyzed by UV/Vis spectroscopy at 436 nm, and the absorbance was compared to a standard curve compiled from 4 standards of known concentration.
# The sample was rotated for 2 hours, then centrifuged for 5 minutes. […] A 125-μL aliquot of the solution was then diluted to 25 mL. The sample was analyzed by UV/Vis spectroscopy at 411 nm, and the absorbance was compared to a standard curve compiled from 4 standards of known concentration.
# superoxide anion = test: Direct superoxide anion scavenging by EPR spectroscopy (DEPMPO spin-trap) in PMA-stimulated isolated human neutrophils; format: cell-based
# Procedure: Leukocyte Isolation and Preparation. Human polymorphonuclear leukocytes (PMNs) were isolated from freshly sampled venous blood of a single volunteer by Percoll density gradient centrifugation as described previously. Briefly, each 10 mL of whole blood was mixed with 0.8 mL of 0.1 M EDTA and 25 mL of saline. The diluted blood was then layered over 9 mL of Percoll at a specific density of 1.080 g/mL. After centrifugation at 400×g for 20 min at 20° C., the plasma, mononuclear cell, and Percoll layers were removed. Erythrocytes were subsequently lysed by addition of 18 mL of ice-cold water for 30 s, followed by 2 mL of 10× PIPES buffer (25 mM PIPES, 110 mM NaCl, and 5 mM KCl, titrated to pH 7.4 with NaOH). Cells were then pelleted at 4° C., the supernatant was decanted, and the procedure was repeated. After the second hypotonic cell lysis, cells were washed twice with PAG buffer [PIPES buffer containing 0.003% human serum albumin (HSA) and 0.1% glucose]. Afterward, PMNs were counted by light microscopy on a hemocytometer. The isolation yielded PMNs with a purity of >95%. The final pellet was then suspended in PAG-CM buffer (PAG buffer with 1 mM CaCl2 and 1 mM MgCl2). EPR Measurements. All EPR measurements were performed using a Bruker ER 300 EPR spectrometer operating at X-band with a TM110 cavity as previously described. The microwave frequency was measured with a Model 575 microwave counter (EIP Microwave, Inc., San Jose, Calif.). To measure superoxide anion (O2) generation from phorbol-ester (PMA)-stimulated PMNs, EPR spin-trapping studies were performed using the spin trap DEPMPO (Oxis, Portland, Oreg.) at 10 mM. 1×10^6 PMNs were stimulated with PMA (1 ng/mL) and loaded into capillary tubes for EPR measurements. To determine the radical scavenging ability of 3 and 9 in aqueous and ethanolic formulations, PMNs were pre-incubated for 5 minutes with test compound, followed by PMA stimulation.
# Instrument settings used in the spin-trapping experiments were as follows: modulation amplitude, 0.32 G; time constant, 0.16 s; scan time, 60 s; modulation frequency, 100 kHz; microwave power, 20 milliwatts; and microwave frequency, 9.76 GHz. The samples were placed in a quartz EPR flat cell, and spectra were recorded. The component signals in the spectra were identified and quantified as reported previously.
# [2] = target: human serum albumin (HSA) (Homo sapiens, UniProt P02768); test: Plasma-protein binding studies in vitro
# human serum albumin (HSA), sequence (P02768 25-609): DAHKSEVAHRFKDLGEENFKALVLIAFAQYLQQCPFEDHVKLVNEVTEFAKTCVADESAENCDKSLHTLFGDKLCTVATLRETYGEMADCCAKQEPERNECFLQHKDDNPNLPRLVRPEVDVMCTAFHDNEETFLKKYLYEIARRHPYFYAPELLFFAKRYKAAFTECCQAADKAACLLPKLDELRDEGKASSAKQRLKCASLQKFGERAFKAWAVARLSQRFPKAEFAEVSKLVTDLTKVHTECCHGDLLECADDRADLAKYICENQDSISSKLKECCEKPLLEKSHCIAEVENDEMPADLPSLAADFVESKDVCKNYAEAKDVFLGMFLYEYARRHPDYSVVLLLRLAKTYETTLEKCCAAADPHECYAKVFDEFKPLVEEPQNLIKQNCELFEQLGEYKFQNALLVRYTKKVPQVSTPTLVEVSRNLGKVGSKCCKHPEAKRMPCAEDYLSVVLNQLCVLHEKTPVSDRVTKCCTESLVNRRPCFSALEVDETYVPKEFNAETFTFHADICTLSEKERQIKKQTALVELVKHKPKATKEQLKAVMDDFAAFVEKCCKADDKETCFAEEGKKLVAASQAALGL
compound,measurement,setting,value
"3,3′-Diphosphoryloxy-β,ε-carotene sodium salt [compound 9]",increase in dispersibility of diphosphate salt over disuccinate sodium salt,[1],> 10 fold
same,Mean (% inhibition) of superoxide anion signal,"superoxide anion; 0.1 mM, 40% EtOH (EtOH vehicle alone 5%), listed as Lutein Diphosphate Sodium Salt, sodium salt",18.0%
same,Mean (% inhibition) of superoxide anion signal,"superoxide anion; 0.1 mM, 40% EtOH (EtOH vehicle alone 5%), listed as disodium diphosphate derivative of natural source lutein, sodium salt",18%
same,Mean (% inhibition) of superoxide anion signal,"superoxide anion; 0.1 mM, Water, listed as disodium diphosphate derivative of natural source lutein, sodium salt",0%
same,Mean (% inhibition) of superoxide anion signal,"superoxide anion; 1.0 mM, Water",9.3%
same,Mean (% inhibition) of superoxide anion signal,"superoxide anion; 3.0 mM, Water",72.3%
same,Mean (% inhibition) of superoxide anion signal,"superoxide anion; 5.0 mM, Water, listed as Lutein Diphosphate Sodium Salt, sodium salt",91.0%
same,Mean (% inhibition) of superoxide anion signal,"superoxide anion; 5.0 mM, Water, listed as disodium diphosphate derivative of natural source lutein, sodium salt",more than 90%
"CC1=C(/C=C/C(C)=C/C=C/C(C)=C/C=C/C=C(C)/C=C/C=C(C)/C=C/C2=C(C)C(=O)[C@@H](O)CC2(C)C)C(C)(C)C[C@H](O)C1=O [astaxanthin, reference compound]",water solubility,[1],insoluble in water
"CC(C=CC=C(C)C=CC1=C(C)C(=O)C(OC(=O)CCC(=O)[O-])CC1(C)C)=CC=CC=C(C)C=CC=C(C)C=CC1=C(C)C(=O)C(OC(=O)CCC(=O)[O-])CC1(C)C.[Na+].[Na+] [meso-(3R,3′S)-disodium disuccinate astaxanthin]",binding to human serum albumin,[2],bound immediately and preferentially to human serum albumin (HSA)
"β,ε-carotenyl 3,3′-disuccinate sodium salt [compound 3]",Aqueous dispersibility (concentration of supernatant),[1]; 2 h,2.85 mg/mL
same,Mean (% inhibition) of superoxide anion signal,"superoxide anion; 0.1 mM, 40% EtOH (EtOH vehicle alone 5%), listed as Lutein Disuccinate Sodium Salt, sodium salt",5.0%
same,Mean (% inhibition) of superoxide anion signal,"superoxide anion; 0.1 mM, 40% EtOH (EtOH vehicle alone 5%), listed as disodium disuccinate derivative of natural source lutein, sodium salt",did not significantly increase scavenging
same,Mean (% inhibition) of superoxide anion signal,"superoxide anion; 0.1 mM, Water",0%
same,Mean (% inhibition) of superoxide anion signal,"superoxide anion; 1.0 mM, Water",13.0%
same,Mean (% inhibition) of superoxide anion signal,"superoxide anion; 3.0 mM, Water",61.7%
same,Mean (% inhibition) of superoxide anion signal,"superoxide anion; 5.0 mM, Water, listed as Lutein Disuccinate Sodium Salt, sodium salt",74.7%
same,Mean (% inhibition) of superoxide anion signal,"superoxide anion; 5.0 mM, Water, listed as disodium disuccinate derivative of natural source lutein, sodium salt",~75%
same,Mean (% inhibition) of superoxide anion signal,"superoxide anion; 5.0 mM, Water, listed as disuccinate lutein sodium salt, sodium salt",75%
